Assay results from patent US8802700B2 (Vertex Pharmaceuticals Incorporated, priority 2010, dated 2014).

Target: T1, ΔF508-CFTR (Homo sapiens, UniProt P13569, DEL508-508)
T1 construct: expressed in transfected cells
Experiment: Membrane potential optical assay (FRET voltage-sensor dyes, VIPR), identification of potentiator compounds
Format: cell-based
Conditions: Table 3; assay not given; read-out: % Activity (% Efficacy, relative efficacy)
In short: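 NIH3T3 mouse fibroblasts stably expressing ΔF508-CFTR, cultured 24 h at 27 °C, were loaded with FRET voltage dyes CC2-DMPE and DiSBAC2(3). Double-addition format: first addition of Cl⁻-free (gluconate) medium with or without compound; membrane-potential change read as fluorescence on VIPR II.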

T1 sequence (P13569 with tags, fused parts or gaps DEL508-508): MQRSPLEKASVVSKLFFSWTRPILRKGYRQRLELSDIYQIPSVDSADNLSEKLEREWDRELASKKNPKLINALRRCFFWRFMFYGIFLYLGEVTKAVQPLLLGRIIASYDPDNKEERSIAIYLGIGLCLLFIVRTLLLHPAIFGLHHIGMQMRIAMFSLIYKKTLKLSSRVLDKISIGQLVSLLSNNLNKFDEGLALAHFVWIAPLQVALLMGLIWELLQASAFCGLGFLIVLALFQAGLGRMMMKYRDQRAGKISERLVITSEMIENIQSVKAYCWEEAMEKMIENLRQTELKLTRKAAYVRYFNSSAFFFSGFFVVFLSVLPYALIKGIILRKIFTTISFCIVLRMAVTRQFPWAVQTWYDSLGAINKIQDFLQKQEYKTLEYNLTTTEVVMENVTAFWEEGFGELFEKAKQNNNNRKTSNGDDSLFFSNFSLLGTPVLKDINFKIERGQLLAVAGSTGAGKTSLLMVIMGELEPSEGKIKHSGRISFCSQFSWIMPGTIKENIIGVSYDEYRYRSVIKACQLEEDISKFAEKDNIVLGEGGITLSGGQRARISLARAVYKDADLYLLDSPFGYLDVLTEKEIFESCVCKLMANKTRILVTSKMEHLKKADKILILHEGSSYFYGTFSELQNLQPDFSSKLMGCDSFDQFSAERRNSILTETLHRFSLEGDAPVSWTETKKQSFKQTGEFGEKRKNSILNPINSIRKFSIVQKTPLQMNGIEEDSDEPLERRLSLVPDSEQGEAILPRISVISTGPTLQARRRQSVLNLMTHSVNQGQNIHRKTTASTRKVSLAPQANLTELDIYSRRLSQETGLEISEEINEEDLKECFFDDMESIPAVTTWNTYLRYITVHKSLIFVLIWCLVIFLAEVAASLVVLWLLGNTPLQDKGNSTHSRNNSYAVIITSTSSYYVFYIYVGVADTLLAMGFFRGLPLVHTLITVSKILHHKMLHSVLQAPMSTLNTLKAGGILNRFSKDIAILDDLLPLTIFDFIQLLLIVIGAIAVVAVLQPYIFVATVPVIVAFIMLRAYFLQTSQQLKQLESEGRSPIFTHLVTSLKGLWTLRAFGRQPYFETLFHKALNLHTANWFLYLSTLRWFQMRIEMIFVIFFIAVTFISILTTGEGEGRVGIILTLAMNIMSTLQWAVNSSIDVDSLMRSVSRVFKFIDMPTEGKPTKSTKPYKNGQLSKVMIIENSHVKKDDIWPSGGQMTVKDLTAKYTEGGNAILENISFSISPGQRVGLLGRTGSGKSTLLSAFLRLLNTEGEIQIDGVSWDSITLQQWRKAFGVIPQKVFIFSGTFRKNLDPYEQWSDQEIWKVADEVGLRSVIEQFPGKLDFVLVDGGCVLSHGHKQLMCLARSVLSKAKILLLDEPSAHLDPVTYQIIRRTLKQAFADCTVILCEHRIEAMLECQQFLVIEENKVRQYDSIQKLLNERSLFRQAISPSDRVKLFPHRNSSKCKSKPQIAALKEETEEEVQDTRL

Row | Structure (SMILES) | Emax
1 | O=C(Nc1ccccc1-n1cccc1)c1c[nH]c2ccccc2c1=O [Compound 293, 4-oxo-N-[2-(1H-pyrrol-1-yl)phenyl]-1H-quinoline-3-carboxamide] | > 100%
2 | O=C(Nc1ccccc1-c1nc(-c2ccc(Cl)cc2)no1)c1c[nH]c2ccccc2c1=O [Compound 102, N-[2-[3-(4-chlorophenyl)-1,2,4-oxadiazol-5-yl]phenyl]-4-oxo-1H-quinoline-3-carboxamide] | 25 to 100%
3 | CC1(c2cc(F)c(NC(=O)c3c[nH]c4cccc(O)c4c3=O)cc2O)CCCCC1 [Compound 287, N-[2-fluoro-5-hydroxy-4-(1-methylcyclohexyl)-phenyl]-5-hydroxy-4-oxo-1H-quinoline-3-carboxamide] | 25 to 100%
4 | CC(C)(C)c1cc(C(C)(C)C)c(NC(=O)c2c[nH]c3cccc(O)c3c2=O)cc1O [Compound 464, 5-hydroxy-N-(5-hydroxy-2,4-ditert-butyl-phenyl)-4-oxo-1H-quinoline-3-carboxamide] | 25 to 100%
5 | Nc1cccc(NC(=O)c2c[nH]c3ccccc3c2=O)c1 [Compound 431, N-(3-aminophenyl)-4-oxo-1H-quinoline-3-carboxamide] | 25 to 100%
6 | CCOc1ccccc1-c1cc2cc[nH]c2cc1NC(=O)c1c[nH]c2ccccc2c1=O [Compound 327, N-[5-(2-ethoxyphenyl)-1H-indol-6-yl]-4-oxo-1H-quinoline-3-carboxamide] | 25 to 100%
7 | CC(CO)(CO)c1ccc(NC(=O)c2c[nH]c3cccc(O)c3c2=O)cc1 [Compound 493, 5-hydroxy-N-[4-[2-hydroxy-1-(hydroxymethyl)-1-methyl-ethyl]phenyl]-4-oxo-1H-quinoline-3-carboxamide] | 25 to 100%
8 | Cc1cc(C2C3CC4CC(C3)CC2C4)c(O)cc1NC(=O)c1c[nH]c2ccccc2c1=O (centres unmarked) [Compound 208, N-[4-(2-adamantyl)-5-hydroxy-2-methyl-phenyl]-4-oxo-1H-quinoline-3-carboxamide] | 25 to 100%
9 | Cc1ccc(C(F)(F)F)cc1NC(=O)c1c[nH]c2cccc(O)c2c1=O [Compound 676, 5-hydroxy-N-[2-methyl-5-(trifluoromethyl)phenyl]-4-oxo-1H-quinoline-3-carboxamide] | 25 to 100%
10 | Cc1ccccc1-c1ccccc1NC(=O)c1c[nH]c2ccccc2c1=O [Compound 199, N-[2-(o-tolyl)phenyl]-4-oxo-1H-quinoline-3-carboxamide] | 25 to 100%
11 | CC(C)(C)c1cc(C(C)(C)C)c(NC(=O)c2c[nH]c3ccc(C#N)cc3c2=O)cc1O [Compound 525, 6-cyano-N-(5-hydroxy-2,4-ditert-butyl-phenyl)-4-oxo-1H-quinoline-3-carboxamide] | < 25%
12 | CCc1cc(C(C)(C)C)c(O)cc1NC(=O)c1c[nH]c2ccccc2c1=O [Compound 659, N-(2-ethyl-5-hydroxy-4-tert-butyl-phenyl)-4-oxo-1H-quinoline-3-carboxamide] | 25 to 100%
13 | COc1nc2ccccc2c(OC)c1C(=O)Nc1ccccc1-c1ccccc1 [Compound 210, 2,4-dimethoxy-N-(2-phenylphenyl)-quinoline-3-carboxamide] | 25 to 100%
14 | COc1cc2c(=O)c(C(=O)Nc3cc(O)c(C(C)(C)C)cc3C(C)(C)C)c[nH]c2cc1F [Compound 709, 7-fluoro-N-(5-hydroxy-2,4-ditert-butyl-phenyl)-6-methoxy-4-oxo-1H-quinoline-3-carboxamide] | > 100%
15 | CC(=O)Nc1cc(NC(=O)c2c[nH]c3ccccc3c2=O)cc(C(F)(F)F)c1 [Compound 379, N-[3-acetylamino-5-(trifluoromethyl)phenyl]-4-oxo-1H-quinoline-3-carboxamide] | 25 to 100%
16 | Cc1ccc(-c2ccccc2)cc1NC(=O)c1c[nH]c2ccccc2c1=O [Compound 454, N-(2-methyl-5-phenyl-phenyl)-4-oxo-1H-quinoline-3-carboxamide] | < 25%
17 | O=C(Nc1cc(O)c(Cl)cc1Cl)c1c[nH]c2ccccc2c1=O [Compound 608, N-(2,4-dichloro-5-hydroxy-phenyl)-4-oxo-1H-quinoline-3-carboxamide] | 25 to 100%

The next lines start with the values.

Row | Emax | Structure (SMILES)
18 | 25 to 100% | CN(C)CCS(=O)(=O)Nc1cc(NC(=O)c2c[nH]c3ccccc3c2=O)cc(C(F)(F)F)c1 [Compound 359, N-[3-(2-dimethylaminoethylsulfonylamino)-5-(trifluoromethyl)phenyl]-4-oxo-1H-quinoline-3-carboxamide]
19 | 25 to 100% | O=C(Nc1ccc2cc[nH]c2c1)c1cnc2ccc(Cl)cc2c1O [Compound 358, 6-chloro-4-hydroxy-N-(1H-indol-6-yl)quinoline-3-carboxamide]
20 | 25 to 100% | COc1ccc2c(=O)c(C(=O)Nc3cc(O)c(C(C)(C)C)cc3C(C)(C)C)c[nH]c2c1 [Compound 583, N-(5-hydroxy-2,4-ditert-butyl-phenyl)-7-methoxy-4-oxo-1H-quinoline-3-carboxamide]
21 | < 25% | COc1ccc(NC(=O)c2c[nH]c3ccccc3c2=O)cc1OC [Compound 122, N-(3,4-dimethoxyphenyl)-4-oxo-1H-quinoline-3-carboxamide]
22 | < 25% | CCOc1cccc2c(=O)c(C(=O)Nc3cc(O)c(C(C)(C)C)cc3C(C)(C)C)c[nH]c12 [Compound 616, 8-ethoxy-N-(5-hydroxy-2,4-ditert-butyl-phenyl)-4-oxo-1H-quinoline-3-carboxamide]
23 | < 25% | Cc1ccc(C(N)=O)c(NC(=O)c2c[nH]c3ccccc3c2=O)c1 [Compound 335, N-(2-carbamoyl-5-methyl-phenyl)-4-oxo-1H-quinoline-3-carboxamide]
24 | 25 to 100% | Cc1ccc2c(=O)c(C(=O)Nc3cc4[nH]ccc4cc3C(F)(F)F)c[nH]c2c1 [Compound 576, 7-methyl-4-oxo-N-[5-(trifluoromethyl)-1H-indol-6-yl]-1H-quinoline-3-carboxamide]
25 | 25 to 100% | CC(C)(C)c1cccc(NC(=O)c2c[nH]c3ccc(F)cc3c2=O)c1 [Compound 664, 6-fluoro-4-oxo-N-(3-tert-butylphenyl)-1H-quinoline-3-carboxamide]
26 | < 25% | CCOc1cccc2c(=O)c(C(=O)Nc3cc4[nH]ccc4cc3C(C)(C)C)c[nH]c12 [Compound 641, 8-ethoxy-4-oxo-N-(5-tert-butyl-1H-indol-6-yl)-1H-quinoline-3-carboxamide]
27 | 25 to 100% | O=C(Nc1ccc(OC(F)(F)F)c(N2CCCC2)c1)c1c[nH]c2ccccc2c1=O [Compound 579, 4-oxo-N-[3-pyrrolidin-1-yl-4-(trifluoromethoxy)phenyl]-1H-quinoline-3-carboxamide]
28 | 25 to 100% | O=C(Nc1ccccc1N1CCOCC1)c1c[nH]c2ccccc2c1=O [Compound 4, N-(2-morpholinophenyl)-4-oxo-1H-quinoline-3-carboxamide]
29 | 25 to 100% | CC1(C)CNc2cc(NC(=O)c3c[nH]c4ccccc4c3=O)ccc21 [Compound 386, N-(3,3-dimethylindolin-6-yl)-4-oxo-1H-quinoline-3-carboxamide]
30 | 25 to 100% | Nc1nc2ccc(NC(=O)c3c[nH]c4ccccc4c3=O)cc2s1 [Compound 671, N-(2-aminobenzothiazol-6-yl)-4-oxo-1H-quinoline-3-carboxamide]
31 | 25 to 100% | CN(Cc1ccccc1NC(=O)c1c[nH]c2ccccc2c1=O)C1CCCCC1 [Compound 354, N-[2-[(cyclohexyl-methyl-amino)methyl]phenyl]-4-oxo-1H-quinoline-3-carboxamide]
32 | 25 to 100% | Cc1ccccc1NC(=O)c1c[nH]c2ccccc2c1=O [Compound 459, N-(o-tolyl)-4-oxo-1H-quinoline-3-carboxamide]
